Experimental data as given in patent publication US6593311B2, “Apoptosis inducers” (Takara Shuzo Co., Ltd., priority 1996, dated 2003).
Numbered stars: 1 amine (or outer) side, 2 acyl side, 3 side chain; on linkers, the order of the positions; unused ones are H or OH. Bridge positions count the residues as written; N and C are the ends. Square brackets hold non-standard residues; d marks the D form. Peptide text beside a SMILES is read from it. I, II: the chains in the order shown. Actinocin(9to1) = Cc1c2oc3c(C)ccc(C(=O)[*:1])c3nc-2c(C(=O)[*:2])c(N)c1=O; NMeV = CN[C@H](C(=O)O)C(C)C; Sar = CNCC(=O)O

Tests used:
[1] = tested on: Human acute lymphatic leukemia cells MOLT-3; test: DNA ladder detection by agarose gel electrophoresis in MOLT-3 cells; conditions: Example 23; 10 μg/ml solution of actinomycin D; 20 hours
[2] = tested on: Human premyelocytic leukemia cells HL-60; test: Viable count (Trypan Blue) and microscopic morphology of HL-60 cells; format: cell-based; conditions: Example 25; 10 μg/ml solution of actinomycin D; 20 hours
[3] = tested on: Human premyelocytic leukemia cells HL-60; test: DNA ladder detection by agarose gel electrophoresis in HL-60 cells
[4] = tested on: Human acute lymphatic leukemia cells MOLT-3; test: Viable count (Trypan Blue) of MOLT-3 cells; format: cell-based; conditions: Example 24
Experimental: Then the suspension was pipetted into a 24-well plate (mfd. by FALCON) at a ratio of 1.8 ml/well. […] As a control, PBS alone was added in the same amount and incubation was effected in the same manner. 2, 4, 6 and 8 days after the initiation of the incubation, the cells were counted by the Trypan Blue staining method.
In this figure, the abscissa refers to the incubation time (day) while the ordinate refers to the viable count (×10^4 cells /2 ml) in the culture medium. In FIG. 28, the open circle stands for the control (no addition), the solid circle stands for the sulfated-fucose-containing polysaccharide-F obtained in Example 12, the open square stands for the sulfated-fucose-containing polysaccharide obtained in Example 1, the open triangle stands for that obtained in Example 17 and the solid square stands for that obtained in Example 15.

[5] = tested on: Human colonic cancer cells HCT 116; test: Viable count (Trypan Blue) and morphology of HCT 116 cells; format: cell-based; conditions: Example 28; for cell morphology (characteristics of apoptosis) / change in cell count / viable count versus incubation time curve (FIG. 29): 0.5 mg/ml, autoclaved; for change in cell count / viable count versus incubation time curve (FIG. 29): 1 to 4 days; for effects of inducing apoptosis, filter-treated samples: 5 mg/ml solutions in PBS treated with a filter
Experimental: Then the suspension was pipetted into a 24-well plate (mfd. by FALCON) at a ratio of 1.8 ml/well. […] As a control, PBS alone was added in the same amount and incubation was effected in the same manner. 1, 2, 3 and 4 days after the initiation of the incubation, the viable cells were counted in accordance with the method described in “Soshiki Baiyo no Gijutsu” (second ed.), Asakura Shuppan, ed. by Nippon Soshiki Baiyo Gakkai, 26-28 (1990), namely, by the Trypan Blue staining method on a counting chamber.
In this figure, the abscissa refers to the incubation time (day) while the ordinate refers to the viable count (×10^4 cells /2 ml) in the culture medium. In FIG. 29, the open circle stands for the control (no addition), the solid circle stands for the sulfated-fucose-containing polysaccharide preparation obtained in Example 1 and the solid square stands for the sulfated-fucose-containing polysaccharide mixture obtained in Example 1.
Then the suspension was pipetted into a 24-well plate (mfd. by FALCON) at a ratio of 1.8 ml/well. […] As a control, PBS alone was added in the same amount and incubation was effected in the same manner. After the initiation of the incubation, the viable cells were counted with the passage of time in accordance with the method described in “Soshiki Baiyo no Gijutsu” (second ed.), Asakura Shuppan, ed. by Nippon Soshiki Baiyo Gakkai, 26-28 (1990), namely, by the Trypan Blue staining method on a counting chamber.

Molecule	DNA ladders [1]	cell morphology (shrinkage and fragmentation) [2]	DNA ladders ([3]; Example 20, 10 μg/ml solution of actinomycin D, 20 hours)	DNA ladders ([3]; Example 35, Actinomycin D as substitute for F-Fd-4)	effects of inducing apoptosis, autoclaved samples ([4]; 0.5 mg/ml in PBS, autoclave 121° C. 20 minutes)	apoptosis induction and growth inhibition (viable count, FIG. 28) ([4]; 0.2 ml of 0.5 mg/ml solution per 1.8 ml well (text: concentration of 0.5 mg/ml), 2, 4, 6 and 8 days)	viable count versus incubation time curve (FIG. 28) ([4]; 2 to 8 days)	cell morphology (characteristics of apoptosis) [5]	change in cell count [5]	viable count versus incubation time curve (FIG. 29) [5]	effects of inducing apoptosis, filter-treated samples [5]
Cc1c2oc3c(C)ccc(C(=O)N[C@@H]4C(=O)N[C@H](C(C)C)C(=O)N5CCC[C@H]5C(=O)N(C)CC(=O)N(C)[C@@H](C(C)C)C(=O)O[C@@H]4C)c3nc-2c(C(=O)N[C@@H]2C(=O)N[C@H](C(C)C)C(=O)N3CCC[C@H]3C(=O)N(C)CC(=O)N(C)[C@@H](C(C)C)C(=O)O[C@@H]2C)c(N)c1=O [actinomycin D] (I: T[dV]P[Sar][NMeV] / II: T[dV]P[Sar][NMeV]; ester I:1-I:C, II:1-II:C; linker I:N-II:N via Actinocin(9to1))	DNA ladders were observed	the shrinkage and fragmentation of the cells were observed	DNA ladders were observed	DNA ladders were observed	–	–	–	–	–	–	–
dextran sulfate	–	–	–	–	the same results were obtained	induce the apoptosis of the MOLT-3 cells and considerably inhibit the growth of these cells	substantially the same curve as the one obtained by using the sulfated-fucose-containing polysaccharide of Example 15	showed characteristics of apoptosis such as the shrinkage and fragmentation of the cells	little increase or a decrease in cell count	substantially the same curve as the one of the sulfated-fucose-containing polysaccharide preparation of Example 1	the same results were obtained
heparin	–	–	–	–	–	–	–	showed characteristics of apoptosis such as the shrinkage and fragmentation of the cells	little increase or a decrease in cell count	substantially the same curve as the one of the sulfated-fucose-containing polysaccharide preparation of Example 1	the same results were obtained
